Values joined by “and” are separate entries in the source; they are usually repeats but may differ in a detail not shown here. Equal entries are not always repeated.
How the values were obtained:
P rats = assay: Free-choice ethanol self-administration in P rats; format: in vivo, rat; details: for Mean EtOH Consumed in g/kg (Drug-treated) / Reduction vs. Vehicle (EtOH consumed): P rats, 12 hr
Excerpt: Free-Choice Ethanol Self-Administration in Alcohol-Preferring Rats: P Rats:
In this procedure (modified from Rodd-Henricks Z A, McKinzie D L, Shaikh S R, Murphy J M, McBride W J, Lumeng L and Li T K (2000) Alcohol deprivation effect is prolonged in the alcohol preferring (P) rat after repeated deprivations. Alcohol Clin Exp Res 24:8-16), female P rats are obtained from a private colony (Taconic, Germantown, N.Y.), individually-housed with food, 15% ethanol (v/v, in water), and water available ad libitum, and maintained on a 12 hr. light/dark cycle (lights off at 16:00). The chambers are equipped with a force transduction system (TSE Systems, Bad Homburg, Germany) attached to the ethanol, water, and food receptacles to enable continuous monitoring of food and liquid consumption. Rats voluntarily consume 15% ethanol with a mean daily intake of roughly 5 g/kg for several months prior to drug testing. Rats are treated orally with vehicle or test compounds in the dose range of 3, 10, or 30 mg/kg (3 mL/kg dose volume, dissolved in a vehicle consisting of 20% Captisol® in 25 mM phosphate buffer at pH=2), or naltrexone (10 mg/kg, 1 mL/kg dose volume, dissolved in water) immediately prior to the onset of the dark cycle, using a within-subjects, crossover design (3-4 day washout between subsequent doses). In a separate experiment, rats receive oral administration of vehicle followed by 4 daily oral doses of vehicle or 30 mg/kg test compound immediately prior to the onset of the dark cycle, using a between-subjects design.

[1] = test system: Alcohol-Preferring (P) rats; assay: Operant ethanol self-administration in P rats (progressive ratio schedule); format: in vivo, rat; details: female P rats, 10 mg/kg oral
Excerpt: Operant Self-Administration in P rats:
Female P rats are obtained and pair-housed from a private colony (Taconic, Germantown, N.Y.). In order to reduce novelty-induced avoidance of ethanol, the water bottle on the homecage is replaced with a bottle containing 15% ethanol in water (v/v, in water) for two days prior to operant training. Throughout the rest of the experiment, rats receive ad libitum access to water and standard laboratory chow, with no further access to ethanol in the homecage.
Rats are trained to press a lever for ethanol reinforcement in daily 30-min sessions conducted in standard rat operant chambers contained within sound-attenuating chambers (MED Associates, Inc., St. Albans, Vt.). The chambers consist of two stainless steel and two clear Plexiglas walls. The floor grid of the operant chambers consists of 0.5 cm diameter stainless steel bars placed approximately 1.5 cm apart. Each operant chamber contains two retractable operant levers located approximately 6 cm above the grid floor and 13 cm apart. A recessed trough is located in the space between the levers, through which a dipper cup (0.1 mL capacity) is raised to deliver response-contingent ethanol (15%, v/v, in water). Upon a reinforced response, a stimulus light is illuminated above the lever on which the response was made throughout the 4-sec dipper cup access. Operation of the stimuli and behavioral responses are controlled and recorded by personal computer for offline analysis (MED Associates, Inc., St. Albans, Vt.).
During operant training, responses on either lever are considered correct responses and are rewarded with 0.1 mL ethanol reinforcement. […] Once stable baseline responding is reached on an FR-1 schedule of reinforcement, the response contingency is increased to FR-2 and then again to FR-3 so that 3 lever presses are required for each reinforcement. […] Specifically, the response requirement is increased as follows: all rats begin each session at an FR-1 schedule of reinforcement; after three reinforcements, the schedule is increased to FR-2; after three reinforcements at that level, the schedule is increased by two to FR-4; after three reinforcements, the schedule is increased by two to FR-6; and so on (see for e.g. Oster S M, Toalston J E, Kuc K A, Pommer T J, Murphy J M, Lumeng L, Bell R L, McBride W J and Rodd Z A (2006) Effects of multiple alcohol deprivations on operant ethanol self-administration by high-alcohol-drinking replicate rat lines. Alcohol 38:155-164). Each session lasts a total of 30 min, after which, all stimuli are turned off and levers are retracted. […] The amount of ethanol consumed is calculated from the number of active lever presses, and converted into g/kg EtOH consumed. Rats receive oral administration of vehicle or test compound in the dose range of 3, 10, or 30 mg/kg (3 mL/kg dose volume, dissolved in a vehicle consisting of 20% Captisol® in 25 mM phosphate buffer at pH=2), or the nonselective opioid receptor antagonist naltrexone (10 mg/kg) as a positive control, 60 min. prior to the session, using a within-subjects, crossover design (3-4 day washout between subsequent doses). On a separate occasion, rats receive oral administration of vehicle or 30 mg/kg test compound (1 mL/kg dose volume, dissolved in a vehicle consisting of 20% Captisol® in 25 mM phosphate buffer), 30 min prior to the session, using a crossover design.

Compound	Mean EtOH Consumed in g/kg (Drug-treated) (P rats; 3 mg/kg oral) [g/kg]	Reduction vs. Vehicle (EtOH consumed) (P rats; 3 mg/kg oral) [%]	Mean EtOH Consumed in g/kg (Drug-treated) (P rats; 10 mg/kg oral) [g/kg]	Reduction vs. Vehicle (EtOH consumed) (P rats; 10 mg/kg oral) [%]	Mean EtOH Consumed in g/kg (Drug-treated) (P rats; 30 mg/kg oral) [g/kg]	Reduction vs. Vehicle (EtOH consumed) (P rats; 30 mg/kg oral) [%]	ethanol self-administration (P rats; free-choice access, P rats and msP rats, result in words)	Reduction vs. Vehicle (lever presses) [1] [%]	Mean Number of Lever Presses (Drug-treated) ([1]; 30-min progressive ratio session)	Mean EtOH Consumed in g/kg (Drug-treated) (P rats; 10 mg/kg oral, 10 mg/kg)	Reduction vs. Vehicle (EtOH consumed) (P rats; 10 mg/kg oral, 10 mg/kg)
Cc1nn(-c2c(F)cccc2F)cc1CN1CCC2(CC1)OCC(F)(F)c1cc(Cl)sc12 [Compound 5, 2-chloro-1′-[[l-(2,6-difluorophenyl)-3-methyl-pyrazol-4-yl]methyl]-4,4-difluoro-spiro[5H-thieno[2,3-c]pyran-7,4′-piperidine]]	4.39	15.0	4.05	21.5	3.74	27.6	significantly reduce ethanol self-administration				
O=C1CC[C@@]2(O)[C@H]3Cc4ccc(O)c5c4[C@@]2(CCN3CC2CC2)[C@H]1O5 [naltrexone, reference compound]								75.4	106.33	3.30 g/kg and 2.83 g/kg and 3.31 g/kg	30.2% and 45.0% and 36.0%

— patent publication US9371335B2, “Spirothienopyran-piperidine derivatives as ORL-1 receptor antagonists for their use in the treatment of alcohol dependence and abuse” (Eli Lilly and Company, priority 2011, dated 2016)
